# “Also recorded” adds a separate entry of the source. Where a SMILES comes first, the peptide text is derived from it. Bridges are numbered along the chain shown (N, C = ends).
# Key:
# ICR healthy mice [1] = assay: Single administration toxicity study: overall toxicity and examination of major organs; assay type: in vivo; details: single airway spray
# Description: (§1) Specific pathogen-free (SIPF) grade ICR healthy mice (with an equal number of males and females, procured from Hunan Slaughter King Laboratory Animal Co., Changsha, China) were randomly divided into four experimental groups and received ShSPI via airway spray at doses of 0 mg/kg (control), 40 mg/kg, 80 mg/kg, or 160 mg/kg in a single administration. Following treatment, the mice were monitored for a 14-day observation period. On the fourteenth day, blood plasma samples were collected for precise measurement and analysis of hematological and biochemical parameters. The specific process is as follows.
# At the end of the 14-day observation period, all mice underwent a comprehensive gross anatomical examination. Key organs, including the heart, liver, spleen, lungs, kidneys, brain, and gastrointestinal tract, were evaluated for changes in surface color, morphological structure, size, and tissue texture.
# [2] = test system: BLM-induced idiopathic pulmonary fibrosis (IPF) mouse model; assay: Histopathologic analysis of the lungs (H&E and Masson staining) of IPF mice; assay type: in vivo, ICR mice
# Description: Animal Model Preparation: The peptide powder was dissolved in pre-cooled saline and filtered to remove bacteria, then a spray needle was attached to a micro-syringe to aspirate the peptide solution. A total of 56 ICR mice were anesthetized by intramuscular injection of avertin. After anesthesia, the mice were fixed supine, the tongue was gently pulled, the vocal folds were exposed with a laryngoscope, the trachea was gently inserted, and the nebulized solution was rapidly pushed and injected. Each mouse was administered 100 μL of a 0.4 mg/mL bleomycin solution via tracheal spray, with the treatment performed once. Seven days after modeling, the mice were randomly grouped for ShSPI treatment based on weight loss scores. An additional 8 mice received the vehicle (normal saline) and were designated as the sham group.
# A total of 48 suitable mice were randomly divided into five groups: the model control group (MC), the positive control group (PC), and the ShSPI low-dose groups (1 mg/kg), medium-dose groups (2 mg/kg), and high-dose groups (4 mg/kg).
# Drug Administration: Starting on day 7 post-modeling, ShSPI peptide treatment groups were anesthetized with intramuscular avertin and received tracheal spray administration of the peptide. The low-dose group was treated with 1 mg/kg ShSPI peptide, the medium-dose group with 2 mg/kg, and the high-dose group with 4 mg/kg. The positive control group, without anesthesia, received 200 mg/kg pirfenidone (IPFD) via oral gavage. All groups were treated once daily for seven consecutive days.
# Sample Collection: Twenty-four hours after the final treatment, all ICR mice were euthanized via intramuscular injection of suforane. […]
# The samples from experiment 4.1 were then processed using standard protocols for paraffin embedding, and 5 μm thick paraffin sections were prepared. […] Multiple fields were randomly selected, and the severity of alveolar inflammation in each group was quantified according to criteria such as the area of tissue affected by inflammation. […]
# ICR healthy mice [3] = assay: Single administration toxicity study: blood biochemistry and electrolytes; assay type: in vivo; details: single airway spray, day 14 post-dose, serum, automated biochemistry analyzer, mean ± s
# Description: as §1
# On day 14 post-dose, approximately 1.7–2.0 mL of whole blood was collected for hematological and biochemical analyses. Hematological parameters were assessed using an automated hematology analyzer, while biochemical parameters were evaluated with an automated biochemistry analyzer. Prior to blood collection, all mice were fasted for at least 12 h. For hematological analysis, 200 μL of whole blood was immediately transferred into EDTA-containing tubes. For biochemical analysis, 1.5 mL of whole blood was placed into serum separator tubes without anticoagulant and centrifuged to isolate serum.
# [4] = ShSPI tracheal spray once daily for 7 days
# [5] = 40 mg/kg ShSPI, n = 6, * p < 0.05 vs blank control
# [6] = 80 mg/kg ShSPI, n = 6, * p < 0.05 vs blank control
smiles,measurement,setting,value
"CC[C@H](C)[C@@H]1NC(=O)[C@H](C)NC(=O)[C@@H]2CCCN2C(=O)[C@@H]2CSSC[C@H](NC(=O)[C@H](CO)NC(=O)[C@H](CC(N)=O)NC(=O)[C@H](CO)NC(=O)[C@H](Cc3ccc(O)cc3)NC(=O)[C@H](CCSC)NC(=O)[C@H](CCCNC(=N)N)NC(=O)CNC(=O)[C@H](Cc3ccccc3)NC(=O)[C@H](CCC(=O)O)NC(=O)[C@H](CC(=O)O)NC(=O)[C@H](Cc3ccccc3)NC(=O)[C@H](C(C)C)NC(=O)[C@@H]3CCCN3C(=O)[C@H](CCC(N)=O)NC(=O)[C@H](Cc3ccc(O)cc3)NC1=O)C(=O)N[C@@H](CCC(=O)O)C(=O)N[C@@H](CCSC)C(=O)N[C@@H](CCC(N)=O)C(=O)N[C@@H](CCCNC(=N)N)C(=O)N[C@@H](C)C(=O)N[C@@H](CCCNC(=N)N)C(=O)N[C@H](C(=O)N[C@@H](CC(C)C)C(=O)N[C@@H](CCCNC(=N)N)C(=O)NCC(=O)O)CSSC[C@H](N)C(=O)N1CCC[C@H]1C(=O)N[C@@H](CCC(N)=O)C(=O)N[C@@H](C(C)C)C(=O)N2 [ShSPI] (H-CPQVCPAIYQPVFDEFGRMYSNSCEMQRARCLRG-OH; disulfide 1-31, 5-24; N-terminus and C-terminus assumed)",histopathological examination of major organs,"ICR healthy mice [1]; doses up to 160 mg/kg, end of 14-day observation",no pathological changes
same,toxicity after single administration,"ICR healthy mice [1]; escalating doses up to 160 mg/kg, 14-day observation",no detectable toxicity observed; also recorded: did not show significant toxic effects
same,effect on the model's damage (fibrotic lesions),"[2]; ShSPI 1 mg/kg tracheal spray once daily for 7 days, compared with 2 and 4 mg/kg",less effective
same,collagen deposition in the lungs (Masson staining),[2]; [4],substantial inhibition
same,lung inflammation (H&E staining),[2]; [4],substantial reduction
same,ALBII,"ICR healthy mice [3]; 40 mg/kg ShSPI, n = 6",29.13 ± 1.27 g/L
same,ALP,"ICR healthy mice [3]; 40 mg/kg ShSPI, n = 6",85.25 ± 18.91 U/L
same,ALT,"ICR healthy mice [3]; 40 mg/kg ShSPI, n = 6",44.95 ± 22.02 U/L
same,AST,"ICR healthy mice [3]; 40 mg/kg ShSPI, n = 6",97.20 ± 13.33 U/L
same,CK,"ICR healthy mice [3]; 40 mg/kg ShSPI, n = 6",236.4 ± 108.76 U/L
same,CREA-S,"ICR healthy mice [3]; 40 mg/kg ShSPI, n = 6",21.70 ± 4.99 µmol/L
same,GLO2,"ICR healthy mice [3]; 40 mg/kg ShSPI, n = 6",17.67 ± 0.80 g/L
same,Glu-G,"ICR healthy mice [3]; 40 mg/kg ShSPI, n = 6",9.93 ± 1.48 mmol/L
same,T-Bil-VII,"ICR healthy mice [3]; 40 mg/kg ShSPI, n = 6",1.73 ± 0.80 µmol/L
same,TC,"ICR healthy mice [3]; 40 mg/kg ShSPI, n = 6",2.09 ± 0.33 mmol/L
same,TG,"ICR healthy mice [3]; 40 mg/kg ShSPI, n = 6",1.35 ± 0.50 mmol/L
same,TPII,"ICR healthy mice [3]; 40 mg/kg ShSPI, n = 6",46.81 ± 1.48 g/L
same,UREA,"ICR healthy mice [3]; 40 mg/kg ShSPI, n = 6",17.07 ± 3.07 mmol/L
same,calcium binding,"ICR healthy mice [3]; 40 mg/kg ShSPI, n = 6",1.23 ± 0.011 mmol/L
same,chloride ion,"ICR healthy mice [3]; 40 mg/kg ShSPI, n = 6",106.80 ± 1.14 mmol/L
same,potassium ion,"ICR healthy mice [3]; 40 mg/kg ShSPI, n = 6",4.82 ± 0.27 mmol/L
same,r-GT,"ICR healthy mice [3]; 40 mg/kg ShSPI, n = 6",0.38 ± 0.20 U/L
same,sodium ion,"ICR healthy mice [3]; 40 mg/kg ShSPI, n = 6",152.39 ± 1.75 mmol/L
same,calcium ionomer,ICR healthy mice [3]; [5],1.23 ± 0.01 * mmol/L
same,total calcium,ICR healthy mice [3]; [5],2.48 ± 0.02 * mmol/L
same,ALBII,"ICR healthy mice [3]; 80 mg/kg ShSPI, n = 6",28.05 ± 1.53 g/L
same,ALP,"ICR healthy mice [3]; 80 mg/kg ShSPI, n = 6",94.75 ± 22.33 U/L
same,ALT,"ICR healthy mice [3]; 80 mg/kg ShSPI, n = 6",38.58 ± 7.12 U/L
same,AST,"ICR healthy mice [3]; 80 mg/kg ShSPI, n = 6",92.95 ± 20.45 U/L
same,CK,"ICR healthy mice [3]; 80 mg/kg ShSPI, n = 6",175.4 ± 69.9 U/L
same,CREA-S,"ICR healthy mice [3]; 80 mg/kg ShSPI, n = 6",23.10 ± 2.24 µmol/L
same,GLO2,"ICR healthy mice [3]; 80 mg/kg ShSPI, n = 6",17.21 ± 0.82 g/L
same,Glu-G,"ICR healthy mice [3]; 80 mg/kg ShSPI, n = 6",9.71 ± 1.69 mmol/L
same,T-Bil-VII,"ICR healthy mice [3]; 80 mg/kg ShSPI, n = 6",1.47 ± 0.43 µmol/L
same,TC,"ICR healthy mice [3]; 80 mg/kg ShSPI, n = 6",2.21 ± 0.61 mmol/L
same,TG,"ICR healthy mice [3]; 80 mg/kg ShSPI, n = 6",1.21 ± 0.32 mmol/L
same,TPII,"ICR healthy mice [3]; 80 mg/kg ShSPI, n = 6",45.26 ± 1.62 g/L
same,UREA,"ICR healthy mice [3]; 80 mg/kg ShSPI, n = 6",14.79 ± 3.07 mmol/L
same,calcium binding,"ICR healthy mice [3]; 80 mg/kg ShSPI, n = 6",1.24 ± 0.05 mmol/L
same,chloride ion,"ICR healthy mice [3]; 80 mg/kg ShSPI, n = 6",106.5 ± 1.26 mmol/L
same,potassium ion,"ICR healthy mice [3]; 80 mg/kg ShSPI, n = 6",5.01 ± 0.46 mmol/L
same,r-GT,"ICR healthy mice [3]; 80 mg/kg ShSPI, n = 6",0.00 ± 1.01 U/L
same,sodium ion,"ICR healthy mice [3]; 80 mg/kg ShSPI, n = 6",150.7 ± 1.89 mmol/L
same,calcium ionomer,ICR healthy mice [3]; [6],1.24 ± 0.05 * mmol/L
same,total calcium,ICR healthy mice [3]; [6],2.49 ± 0.10 * mmol/L
same,ALBII,"ICR healthy mice [3]; 160 mg/kg ShSPI, n = 6",30.1 ± 1.28 g/L
same,ALP,"ICR healthy mice [3]; 160 mg/kg ShSPI, n = 6",98.6 ± 27.17 U/L
same,ALT,"ICR healthy mice [3]; 160 mg/kg ShSPI, n = 6",39.80 ± 7.79 U/L
same,AST,"ICR healthy mice [3]; 160 mg/kg ShSPI, n = 6",80.6 ± 16.79 U/L
same,CK,"ICR healthy mice [3]; 160 mg/kg ShSPI, n = 6",156.4 ± 75.0 U/L
same,CREA-S,"ICR healthy mice [3]; 160 mg/kg ShSPI, n = 6",19.1 ± 3.98 µmol/L
same,GLO2,"ICR healthy mice [3]; 160 mg/kg ShSPI, n = 6",18.0 ± 1.06 g/L
same,Glu-G,"ICR healthy mice [3]; 160 mg/kg ShSPI, n = 6",9.24 ± 1.33 mmol/L
same,TC,"ICR healthy mice [3]; 160 mg/kg ShSPI, n = 6",2.26 ± 0.33 mmol/L
same,TG,"ICR healthy mice [3]; 160 mg/kg ShSPI, n = 6",1.23 ± 0.35 mmol/L
same,TPII,"ICR healthy mice [3]; 160 mg/kg ShSPI, n = 6",48.2 ± 1.79 g/L
same,UREA,"ICR healthy mice [3]; 160 mg/kg ShSPI, n = 6",13.6 ± 4.00 mmol/L
same,calcium binding,"ICR healthy mice [3]; 160 mg/kg ShSPI, n = 6",1.28 ± 0.03 mmol/L
same,calcium ionomer,"ICR healthy mice [3]; 160 mg/kg ShSPI, n = 6",1.28 ± 0.03 mmol/L
same,chloride ion,"ICR healthy mice [3]; 160 mg/kg ShSPI, n = 6",106.5 ± 1.44 mmol/L
same,potassium ion,"ICR healthy mice [3]; 160 mg/kg ShSPI, n = 6",4.68 ± 0.30 mmol/L
same,r-GT,"ICR healthy mice [3]; 160 mg/kg ShSPI, n = 6",0.31 ± 0.35 U/L
same,sodium ion,"ICR healthy mice [3]; 160 mg/kg ShSPI, n = 6",152.9 ± 1.60 mmol/L
same,total calcium,"ICR healthy mice [3]; 160 mg/kg ShSPI, n = 6, * p < 0.05 vs blank control",2.5 ± 0.06 * mmol/L

# Reference: PMC12116161, “An Elastase Inhibitor ShSPI from Centipede Attenuates Bleomycin-Induced Pulmonary Fibrosis” (Toxins, 2025)
